In patent US7273861B2, “Non-nucleoside reverse transcriptase inhibitors” (Boehringer Ingelheim (Canada) Ltd., priority 2002, dated 2007):
Read-outs that look alike come from different tables or passages of the source.

Columns and labels:
HIV-1 RT WT = target: T1, HIV-1 RT WT (Human immunodeficiency virus type 1 group M subtype B, UniProt P03366); assay: Reverse Transcriptase (RT) assay, wild type; type: biochemical
T1 construct: mutations that occur in the reverse transcriptase segment of the pol gene
From the text: (§1) Based upon testing of these compounds, as described below, it is known that they inhibit the RNA-dependent DNA polymerase activity of HIV-1 RT. Utilizing the Reverse Transcriptase (RT) Assay described below, compounds can be tested for their ability to inhibit the RNA-dependent DNA polymerase activity of HIV-1 RT. Certain specific compounds described in the Examples which appear below, were so tested. The results of this testing appear in Table 2 as IC50 (nM) and EC50 (nM).
(§2) The assays are as described in WO 01/96338A1, the contents of which are hereby incorporated herein. The results are listed in Table 2 as IC50(nM) and EC50 (nM).

HIV-1 RT K103N/Y181C = target: T2, HIV-1 RT K103N/Y181C (Human immunodeficiency virus type 1 group M subtype B, UniProt P03366, K702N/Y780C); assay: Reverse Transcriptase (RT) assay, double mutant K103N/Y181C; type: biochemical
T2 construct: mutations that occur in the reverse transcriptase segment of the pol gene
From the text: as §1, §2

[1] = system: wild type HIV-1 replication; assay: Cell-based assay, wild type HIV
From the text: as §2

| Molecule | IC50 (HIV-1 RT WT; wild type RT, read-out: IC50 WT) | IC50 (HIV-1 RT K103N/Y181C; double mutant K103N/Y181C RT, read-out: IC50 K103N/Y181C) | EC50 [1] | IC50 (HIV-1 RT WT) | IC50 (HIV-1 RT K103N/Y181C) | EC50 ([1]; Human immunodeficiency virus 1) |
| --- | --- | --- | --- | --- | --- | --- |
| 4′-{(9H-imidazo[1,2-d]dipyrido[2,3-b:3′,2′-f][1,4]diazepin-12-yl)ethoxy}-3′-methyl-[1,1′-biphenyl]4-acetic acid [Entry 119] | < 50 nM | < 50 nM | < 10 nM | – | – | – |
| CCN1c2ncc(CCOc3cccc4c3CNC(=O)N4)cc2-c2nc(C)cn2-c2cccnc21 [Entry 101] | – | – | – | < 50 nM | > 100 nM | – |
| CCN1c2ncc(CCOc3cccc4c3C=CS(=O)(=O)N4C)cc2-c2ncc(C)n2-c2cccnc21 [Entry 102] | – | – | – | < 50 nM | < 50 nM | < 10 nM |
| CCN1c2ncc(CCOc3cccc4c3CNC4=O)cc2-c2ncc(C)n2-c2cccnc21 [Entry 103] | – | – | – | < 50 nM | > 100 nM | < 10 nM |
| CCN1c2ncc(CCOc3cccc4c3CCS(=O)(=O)N4)cc2-c2ncc(C)n2-c2cccnc21 [Entry 104] | – | – | – | < 50 nM | 50 to 100 nM | – |
| CCN1c2ncc(CCOc3cccc4c3CNS4(=O)=O)cc2-c2ncc(C)n2-c2cccnc21 [Entry 105] | – | – | – | < 50 nM | < 50 nM | – |
| CCN1c2ncc(CCOc3cccc4c3COC(=O)N4)cc2-c2ncc(C)n2-c2cccnc21 [Entry 106] | – | – | – | < 50 nM | > 100 nM | – |
| CCN1c2ncc(CCOc3ccc4c(c3)C(C)(C)NS4(=O)=O)cc2-c2nccn2-c2c(C)ccnc21 [Entry 107] | – | – | – | < 50 nM | < 50 nM | – |
| CCN1c2ncc(CCOc3cccc4c3CNC(=O)N4)cc2-c2nccn2-c2c(C)ccnc21 [Entry 108] | – | – | – | < 50 nM | < 50 nM | – |
| CCN1c2ncc(CCOc3cccc4c3CNC(=O)N4)cc2-c2nccn2-c2cccnc21 [Entry 109] | – | – | – | < 50 nM | < 50 nM | – |
| CCN1c2ncc(CCOc3cccc4c3CCNC4=O)cc2-c2ncc(C)n2-c2cccnc21 [Entry 110, 9-Ethyl-3-methyl-12-{2-{(1,2,3,4-ttrahydro-1-oxo-5-isoquinolinyl)oxy}ethyl}-9H-imidazo[1,2-d]dipyrido[2,3-b:3′,2′-f][1,4]diazepine] | – | – | – | < 50 nM | > 100 nM | – |
| CCN1c2ncc(CCOc3cccc4c3CN(C)C(=O)N4C)cc2-c2ncc(C)n2-c2cccnc21 [Entry 111] | – | – | – | < 50 nM | > 100 nM | – |
| CCOC(=O)N1c2cccc(OCCc3cnc4c(c3)-c3nccn3-c3c(C)ccnc3N4CC)c2CS1(=O)=O [Entry 112] | – | – | – | < 50 nM | < 50 nM | – |
| CCN1c2ncc(CCOc3cccc4c3CS(=O)(=O)N4)cc2-c2nccn2-c2c(C)ccnc21 [Entry 113] | – | – | – | < 50 nM | 50 to 100 nM | – |
| CCN1c2ncc(CCOc3cccc4c3CS(=O)(=O)N4CC(=O)OC(C)(C)C)cc2-c2nccn2-c2c(C)ccnc21 [Entry 114] | – | – | – | < 50 nM | 50 to 100 nM | – |
| CCN1c2ncc(CCOc3cccc4c3CS(=O)(=O)N4CC(=O)O)cc2-c2nccn2-c2c(C)ccnc21 [Entry 115] | – | – | – | < 50 nM | 50 to 100 nM | > 50 nM |
| CCN1c2ncc(CCOc3ccc(C(=O)O)cc3C)cc2-c2nccn2-c2cccnc21 [Entry 117] | – | – | – | < 50 nM | > 100 nM | < 10 nM |
| CCN1c2ncc(CCOc3ccc(C(=O)O)cc3C)cc2-c2ncc(C)n2-c2cccnc21 [Entry 118] | – | – | – | < 50 nM | < 50 nM | – |
| CCN1c2ncc(CCOc3ccc(-c4ccc(CC(=O)O)cc4)cc3C)cc2-c2ncc(C)n2-c2cccnc21 [Entry 120] | – | – | – | < 50 nM | 50 to 100 nM | – |
| CCN1c2ncc(CCOc3ccc(C(=O)O)c4c3CCCC4)cc2-c2ncc(C)n2-c2cccnc21 [Entry 121] | – | – | – | < 50 nM | > 100 nM | – |
| CCN1c2ncc(CCOc3ccc(C(=O)O)c4ccccc34)cc2-c2ncc(C)n2-c2cccnc21 [Entry 122] | – | – | – | < 50 nM | > 100 nM | – |
